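Test compounds were applied to cells in 96-well plates for 48 hours at 5 doses. GI50: concentration for 50% inhibition of growth. TGI denotes the concentration required for complete inhibition of growth.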
Key:
Experiment in all cases: NCI tumour cell line growth inhibition, 48 h
IGROV1 ovarian = tested on: IGROV1 ovarian
M14 melanoma = tested on: M14 melanoma
MALME-3M melanoma = tested on: MALME-3M melanoma
MDA-MB-435 = tested on: MDA-MB-435
NCI-H23 lung = tested on: NCI-H23 lung
OVCAR-8 ovarian = tested on: OVCAR-8 ovarian
SN12C renal = tested on: SN12C renal
SNB-75 CNS = tested on: SNB-75 CNS
UACC-257 melanoma = tested on: UACC-257 melanoma
UACC-62 melanoma = tested on: UACC-62 melanoma

## OCCCCC#Cc1ccccc1C#Cc1cccc(C(F)(F)F)c1
IGROV1 ovarian
  GI50: 14.4 µM
  TGI: 28.5 µM
M14 melanoma
  GI50: 21.5 µM
  TGI: 50.5 µM
MALME-3M melanoma
  GI50: 26 µM
  TGI: 48.5 µM
MDA-MB-435
  GI50: 16.9 µM
  TGI: 31.6 µM
NCI-H23 lung
  GI50: 16.4 µM
  TGI: 31.5 µM
OVCAR-8 ovarian
  GI50: 18.8 µM
  TGI: 35.7 µM
SN12C renal
  GI50: 18.9 µM
  TGI: 33 µM
SNB-75 CNS
  GI50: 14.6 µM
  TGI: 29.3 µM
UACC-257 melanoma
  GI50: 16.7 µM
  TGI: 31.8 µM
UACC-62 melanoma
  GI50: 15.9 µM
  TGI: 29.5 µM

## Cc1cnc(C(=O)NNc2nc3sc4c(c3c(=O)[nH]2)C(C)CCC4)cn1 (centres undefined)
IGROV1 ovarian
  GI50: 0.759 µM
  TGI: 15.8 µM
M14 melanoma
  GI50: 0.727 µM
  TGI: 9.52 µM
MALME-3M melanoma
  GI50: 1.72 µM
  TGI: 12.2 µM
MDA-MB-435
  GI50: 3.25 µM
  TGI: 26.6 µM
NCI-H23 lung
  GI50: 2.25 µM
  TGI: 43 µM
OVCAR-8 ovarian
  GI50: 0.952 µM
  TGI: 16 µM
SN12C renal
  GI50: 1.17 µM
  TGI: 31.4 µM
SNB-75 CNS
  GI50: 0.259 µM
  TGI: 15.1 µM
UACC-257 melanoma
  GI50: 2.61 µM
  TGI: 11.3 µM
UACC-62 melanoma
  GI50: 0.528 µM
  TGI: 6.93 µM

## COc1ccc(C(O)c2cc3c(N)c(C(=O)Nc4cccc5ccccc45)sc3nc2C)cc1 (centres undefined)
IGROV1 ovarian
  GI50: 0.574 µM
  TGI: > 100 µM
M14 melanoma
  GI50: 0.307 µM
  TGI: > 37.7 µM
MALME-3M melanoma
  GI50: 0.544 µM
  TGI: > 60.8 µM
MDA-MB-435
  GI50: 0.127 µM
  TGI: 0.415 µM
NCI-H23 lung
  GI50: 0.562 µM
  TGI: > 100 µM
OVCAR-8 ovarian
  GI50: 0.373 µM
  TGI: > 100 µM
SN12C renal
  GI50: 0.629 µM
  TGI: > 46.8 µM
SNB-75 CNS
  GI50: 0.39 µM
  TGI: > 100 µM
UACC-257 melanoma
  TGI: > 32.5 µM
UACC-62 melanoma
  GI50: 0.627 µM
  TGI: > 53.2 µM

## CCOC(=O)/C(=C\c1cccc(C)c1)C(C)=O
IGROV1 ovarian
  TGI: 40.8 µM
M14 melanoma
  TGI: 44.3 µM
MALME-3M melanoma
  TGI: 31.4 µM
MDA-MB-435
  TGI: 45.4 µM
NCI-H23 lung
  TGI: 39 µM
OVCAR-8 ovarian
  TGI: 75.1 µM
SN12C renal
  TGI: 41.7 µM
SNB-75 CNS
  TGI: 25.2 µM
UACC-257 melanoma
  TGI: 35.1 µM
UACC-62 melanoma
  TGI: 31.7 µM

## COc1ccc(-c2cc(/C=C/C(=O)c3ccc(N)cc3)[nH]n2)cc1OC
IGROV1 ovarian
  GI50: 4.56 µM
  TGI: 19 µM
M14 melanoma
  GI50: 2.28 µM
  TGI: 5.11 µM
MALME-3M melanoma
  GI50: 6.72 µM
  TGI: 21.2 µM
MDA-MB-435
  GI50: 2.53 µM
  TGI: 7.23 µM
NCI-H23 lung
  GI50: 4.21 µM
  TGI: 19.3 µM
OVCAR-8 ovarian
  GI50: 2.95 µM
  TGI: 10.5 µM
SN12C renal
  GI50: 3.53 µM
  TGI: 13.7 µM
SNB-75 CNS
  GI50: 2.74 µM
  TGI: 14.2 µM
UACC-257 melanoma
  GI50: 6.46 µM
  TGI: 19.5 µM
UACC-62 melanoma
  GI50: 3.11 µM
  TGI: 10.9 µM

## COCCN(Cc1ccc(F)cc1)c1ccc(CO)c(Cl)c1
IGROV1 ovarian
  GI50: 0.559 µM
  TGI: 3.7 µM
M14 melanoma
  GI50: 38.9 µM
  TGI: > 100 µM
MALME-3M melanoma
  GI50: > 57.1 µM
  TGI: > 100 µM
MDA-MB-435
  GI50: 55.5 µM
  TGI: > 100 µM
NCI-H23 lung
  GI50: 17.2 µM
  TGI: > 100 µM
OVCAR-8 ovarian
  GI50: 29.9 µM
  TGI: > 100 µM
SN12C renal
  GI50: 24.9 µM
  TGI: > 100 µM
SNB-75 CNS
  GI50: 16.6 µM
  TGI: > 87.4 µM
UACC-257 melanoma
  GI50: 0.492 µM
  TGI: 2.5 µM
UACC-62 melanoma
  GI50: 0.653 µM
  TGI: 4.28 µM

## ClCCOCCn1cnc2c(Cl)nc(Cl)nc21
IGROV1 ovarian
  GI50: 3.34 µM
  TGI: 12.7 µM
M14 melanoma
  GI50: 13.4 µM
  TGI: 27.9 µM
MALME-3M melanoma
  GI50: 13.1 µM
  TGI: 28.2 µM
MDA-MB-435
  GI50: 10.9 µM
  TGI: 24.1 µM
NCI-H23 lung
  GI50: 12.8 µM
  TGI: 29.1 µM
OVCAR-8 ovarian
  GI50: 10.3 µM
  TGI: 26.5 µM
SN12C renal
  GI50: 16.2 µM
  TGI: 31.8 µM
SNB-75 CNS
  GI50: 13.8 µM
  TGI: 29.2 µM
UACC-257 melanoma
  GI50: 14.1 µM
  TGI: 28.5 µM
UACC-62 melanoma
  GI50: 14 µM
  TGI: 27.2 µM

## C=CCN(CC=C)C(=O)c1cc(C)nc2c1c(=O)n(-c1ccccc1)c(=O)n2CCCN1CCN(c2ccccc2OC)CC1
IGROV1 ovarian
  GI50: > 50 µM
  TGI: > 50 µM
M14 melanoma
  GI50: > 50 µM
  TGI: > 50 µM
MALME-3M melanoma
  GI50: > 50 µM
  TGI: > 50 µM
MDA-MB-435
  GI50: > 50 µM
  TGI: > 50 µM
NCI-H23 lung
  GI50: > 50 µM
  TGI: > 50 µM
OVCAR-8 ovarian
  GI50: > 50 µM
  TGI: > 50 µM
SN12C renal
  GI50: > 50 µM
  TGI: > 50 µM
SNB-75 CNS
  GI50: 31.4 µM
  TGI: > 50 µM
UACC-257 melanoma
  GI50: > 50 µM
  TGI: > 50 µM
UACC-62 melanoma
  GI50: > 50 µM
  TGI: > 50 µM

## COc1ccc(/C=C2\CCC/C(=C\c3ccc(OC)c(OC)c3)C2=O)cc1OC
IGROV1 ovarian
  GI50: 1.72 µM
  TGI: > 32.5 µM
M14 melanoma
  GI50: 1.9 µM
  TGI: > 32.5 µM
MALME-3M melanoma
  GI50: 8.51 µM
  TGI: > 32.5 µM
MDA-MB-435
  GI50: 1.1 µM
  TGI: > 32.5 µM
NCI-H23 lung
  GI50: 2.91 µM
  TGI: > 32.5 µM
OVCAR-8 ovarian
  GI50: 1.16 µM
  TGI: > 32.5 µM
SN12C renal
  GI50: 8.79 µM
  TGI: > 32.5 µM
SNB-75 CNS
  GI50: 1.29 µM
  TGI: 12.8 µM
UACC-257 melanoma
  GI50: 4.65 µM
  TGI: > 32.5 µM
UACC-62 melanoma
  GI50: 7.63 µM
  TGI: > 32.5 µM

## Cc1cc(Br)c(NC(=O)c2c(-c3c(Cl)cccc3Cl)noc2C)c(Br)c1
IGROV1 ovarian
  GI50: > 100 µM
  TGI: > 100 µM
M14 melanoma
  GI50: > 100 µM
  TGI: > 100 µM
MALME-3M melanoma
  GI50: > 100 µM
  TGI: > 100 µM
MDA-MB-435
  GI50: > 100 µM
  TGI: > 100 µM
NCI-H23 lung
  GI50: > 100 µM
  TGI: > 100 µM
OVCAR-8 ovarian
  GI50: > 100 µM
  TGI: > 100 µM
SN12C renal
  GI50: > 100 µM
  TGI: > 100 µM
SNB-75 CNS
  GI50: 47.2 µM
  TGI: > 100 µM
UACC-257 melanoma
  GI50: > 100 µM
  TGI: > 100 µM
UACC-62 melanoma
  GI50: 14.3 µM
  TGI: > 100 µM
